From patent US20050025705A1, “Thrombosis animal models and their use in drug discovery and development” (priority 2003, published 2005)
Values joined by “and” are separate entries in the source; they are usually repeats but may differ in a detail not shown here. Equal values may be shown once.

Experiments:
[1] = system: FeCl3-induced arterial thrombosis in C57BL/6 mice; assay: FeCl3-induced carotid artery thrombosis in mice, Doppler blood flow (Example 2); format: in vivo; details: for efficacy in blocking thrombus formation: relatively high FeCl3 concentrations, unless an extremely high drug concentration was used
Description: Mice were anesthetized with gas inhalation comprised of 30% oxygen (0.3 liter/min; Airgas East, Inc., Salem, N.H.) and 70% nitrous oxide (0.7 liter/min; Airgas East, Inc., Salem, N.H.). […] Louis, Mo.) to the adventitial surface of the carotid artery immediately proximal to the flow probe for 3 min and then removed. The carotid blood flow was monitored at 1, 5, 10, 20, 30 min or some times up to 60 min. Heparin was purchased from American Pharmaceutical Partners, Inc. (Los Angeles, Calif.); mice were infused with 10, 50, 200 and 1000 IU/kg, i.v. immediately prior to 2.5 or 5% FeCl3 treatment on the carotid artery. […] Aspirin (acetylsalicylic acid) and MRS2179 were purchased from Sigma. […] Data in text and figures are mean±standard errors for the indicated number (N) of animals.

[2] = system: tail bleeding time in C57BL/6 mice; assay: Mouse tail bleeding time
Description: Mice were anesthetized as described above and placed on a 37° C. heating pad. About 2-4 mm from the tip of mouse tail (in about 1 mm diameter) was cut with a disposable surgical blade. After transection, the tail was immediately placed into a 50-ml falcon tube filled with 37° C. saline and the bleeding time was recorded up to 30 min. Bleeding time over 30 min was considered as bleeding off scale.
Both thrombosis and bleeding studies were conducted within 2-4 hr after the second day of oral dosing.

[3] = system: 5% FeCl3-induced arterial thrombosis in C57BL/6 mice
Description: Adult mice (18-25 g, both male and female) were used for thrombosis study. Following anesthesia by pentobarbital (50 mg/kg, i.p.), an incision of the skin was made directly on top of the right common carotid artery region. The fascia was then blunt dissected and a segment of the […] common carotid artery was exposed. A Transonic flow probe (0.5 VB) was placed on the artery with gel to obtain the baseline flow readings (as time 0) via a Transonic […] Doppler flowmeter. Two pieces of filter paper (1×11⁄2 mm) pre-soaked with 5% FeCl3 solution were placed beneath and above the carotid artery for 3 min to induce thrombosis. The filter papers were removed and rinsed with saline. The blood flow was recorded every 5, 10, 20 and 30 min of FeCl3 treatment. […] Clopidogrel was administrated for two days. […] Data are illustrated as mean±standard errors using indicated number (N) of animals. Statistical comparisons were made by analysis of variance (ANOVA; Fisher's protected least squares difference) and values were considered to be significant at p<0.05.

[4] = cited from earlier work

CNc1ncnc2c1ncn2[C@H]1C[C@H](OP(=O)(O)O)[C@@H](COP(=O)(O)O)O1 [MRS2179]
effective dose ([1]; 2.5% FeCl3-induced thrombosis, i.v.): 150 mg/kg
potency in blocking FeCl3-induced thrombosis ([1]; 2.5% FeCl3, compared with P2Y12 antagonists): less potent
efficacy in blocking thrombus formation [1]: failed to show efficacy

CC(=O)Oc1ccccc1C(=O)O [aspirin, acetylsalicylic acid]
effect in blocking thrombosis ([1]; 2.5% FeCl3-induced thrombosis, aspirin 10 and 30 mg/kg i.p.): Very little effect
efficacy in blocking thrombus formation [1]: failed to show efficacy

CSCCNc1nc(SCCC(F)(F)F)nc2c1ncn2[C@@H]1O[C@H](COP(=O)(O)OP(=O)(O)C(Cl)(Cl)P(=O)(O)O)[C@@H](O)[C@H]1O [cangrelor]
efficacy in 2.5% versus 5% FeCl3-induced thrombosis ([1]; 2.5% and 5% FeCl3): differential efficacy
efficacy in blocking thrombus formation [1]: failed to show efficacy

COC(=O)[C@H](c1ccccc1Cl)N1CCc2sccc2C1 [clopidogrel]
prolongation in bleeding time ([2]; 1 mg/kg p.o.): no prolongation
animals bleeding off scale (over 30 min) ([2]; 10 mg/kg p.o.): 75%
increase in bleeding time ([2]; 10 mg/kg p.o., p<0.01, n=8): 11 fold and 10.9 fold
animals bleeding off scale (over 30 min) ([2]; 30 mg/kg (data not shown)): 100%
protection from thrombosis ([3]; 10 mg/kg): failed to protect
animals that retained vascular patency ([3]; 100 mg/kg p.o.): 6 out of 9
AUC of the relative Doppler blood flow, over controls ([3]; 100 mg/kg p.o., p<0.01): 3.7 fold
antithrombotic effect ([3]; clinically relevant dose 1 mg/kg p.o.): No antithrombotic effect
dose needed for antithrombotic effect ([3]; p.o.): > 30 mg/kg
vascular patency ([1]; 2.5% FeCl3-induced thrombosis, 1 mg/kg p.o.): maintained in some
vascular patency (animals in which maintained) ([1]; 2.5% FeCl3-induced thrombosis, 3 mg/kg p.o.): all
dose required to show efficacy ([1]; 5% FeCl3-induced thrombosis, p.o.): 100 mg/kg
efficacy in blocking thrombus formation [1]: failed to show efficacy

heparin
vascular patency ([1]; 2.5% FeCl3-induced thrombosis, 200 IU/kg i.v.): maintained
dose required to inhibit thrombosis ([1]; 5% FeCl3-induced thrombosis, i.v.): 1000 IU/kg
efficacy in blocking thrombus formation [1]: failed to show efficacy
clotting activity ([4]; at concentrations greater than 4 ug/ml): not detectable
activated partial thromboplastin time (aPTT) assay times ([4]; at therapeutic range 1 to less than 3 ug/ml plasma): 35 to 100 s
